pIC50: −log10 of the molar value. Numbered stars: 1 amine (or outer) side, 2 acyl side, 3 side chain; on linkers, the order of the positions; unused ones are H or OH. Bridge positions count the residues as written; N and C are the ends. Square brackets hold non-standard residues; d marks the D form. Peptide text beside a SMILES is read from it. * marks the point of attachment. hPhe(3-Cl-4-CF3) = N[C@@H](CCc1ccc(C(F)(F)F)c(Cl)c1)C(=O)O; hPhe(3-F,4-CF3) = N[C@@H](CCc1ccc(C(F)(F)F)c(F)c1)C(=O)O; NMeAla(4-thiazolyl) = CN[C@@H](Cc1cscn1)C(=O)O; X24 = COc1cncc(C[C@@H](C(=O)[*:2])N(C)[*:1])c1; NMe3Pal(6-Me) = CN[C@@H](Cc1ccc(C)nc1)C(=O)O; NMePhe(4-Cl) = CN[C@@H](Cc1ccc(Cl)cc1)C(=O)O; NMePhe(2-CN) = CN[C@@H](Cc1ccccc1C#N)C(=O)O; NMePhe(4-Me) = CN[C@@H](Cc1ccc(C)cc1)C(=O)O; NMedβ3hAla = C[C@H](CC(=O)[*:2])N(C)[*:1]; NMeGly(cPent) = CN[C@H](C(=O)O)C1CCCC1; Phe(2-Cl) = N[C@@H](Cc1ccccc1Cl)C(=O)O; Phe(3-I) = N[C@@H](Cc1cccc(I)c1)C(=O)O; NMeCha = CN[C@@H](CC1CCCCC1)C(=O)O; N(isopentyl)Gly = CC(C)CCNCC(=O)O; NMeChg = CN[C@H](C(=O)O)C1CCCCC1; NMeF = CN[C@@H](Cc1ccccc1)C(=O)O; NMeD = CN[C@@H](CC(=O)O)C(=O)O; NMeL = CN[C@@H](CC(C)C)C(=O)O; Chg = N[C@H](C(=O)O)C1CCCCC1; NMeV = CN[C@H](C(=O)O)C(C)C; d(β3hA) = C[C@@H](N)CC(=O)O; NMeA = CN[C@@H](C)C(=O)O; NMeAib = CNC(C)(C)C(=O)O; Piperidide = C1CCN(*)CC1; Ac5c = NC1(C(=O)O)CCCC1; Aze = O=C(O)[C@@H]1CCN1; Isopentyl = CC(C)CC*; Sar = CNCC(=O)O
Tested on: Human pancreatic cancer cell line AsPC-1 (G12D mutation Kras)
Test: AsPC-1 cell growth inhibition (AsPC-1 CGI)
Format: cell-based
Settings: read-out: AsPC-1 cell growth inhibition, 50% growth inhibitory concentration (IC50 value); 96 hours, CellTiter-Glo, values classified in ranges
Method: Test compounds were serially dilated with dimethyl sulfoxide, and 200 nL was then dispensed to a U-bottom 96-well plate using Labcyte Echo. […] The cell suspension was dispensed to a. plate containing a test compound at 100 μL per well and incubated at 37° C. in a 5% carbon dioxide gas incubator. 96 hours later, 80 μL of CellTiter-Glo (Promega) was added to each well and fluorescence was measured.

With CC[C@H](C)[C@@H]1NC(=O)[C@H](CC(C)C)N(C)C(=O)C[C@@H](C)NC(=O)[C@H](C(C)C)N(C)C(=O)C2(CCCC2)NC(=O)[C@@H]2CCCN2C(=O)[C@H](CCc2ccc(C(F)(F)F)c(Cl)c2)NC(=O)CN(C)C(=O)[C@H](Cc2ccccc2C#N)N(C)C(=O)CN(C)C(=O)CN(C)C1=O [Compound 767] (cyclo([Ac5c][NMeV][d(β3hA)][NMeL]I[Sar][Sar][NMePhe(2-CN)][Sar][hPhe(3-Cl-4-CF3)]P)) as the molecule, how does the pIC50 read?
The pIC50 was < 6.30.

How did the pIC50 turn out when CC[C@H](C)[C@@H]1NC(=O)[C@H](CC(C)C)N(C)C(=O)C[C@@H](C(=O)N2CCCCC2)N(C)C(=O)[C@H](C2CCCCC2)N(C)C(=O)C2(CCCC2)NC(=O)[C@H](Cc2cncc(OC)c2)N(C)C(=O)[C@H](CCc2ccc(C(F)(F)F)c(Cl)c2)NC(=O)CN(C)C(=O)[C@H](CC2CCCCC2)N(C)C(=O)[C@@H]2CCN2C(=O)CN(C)C1=O [Compound 770] ([NMeL]I[Sar][Aze][NMeCha][Sar][hPhe(3-Cl-4-CF3)][X24][Ac5c][NMeChg][NMeD]-Piperidide; lactam N-11) was run?
Its pIC50 is < 6.30.

How did the pIC50 turn out when CC[C@H](C)[C@@H]1NC(=O)[C@H](CC(C)C)N(C)C(=O)C[C@@H](C)N(C)C(=O)[C@H](CC(C)C)NC(=O)C(C)(C)N(C)C(=O)[C@H](C2CCCCC2)NC(=O)[C@H](CCc2ccc(C(F)(F)F)c(F)c2)NC(=O)CN(C)C(=O)[C@H](Cc2ccc(Cl)cc2)N(C)C(=O)CN(C)C(=O)CN(C)C1=O [Compound 772] (cyclo([Chg][NMeAib]L[NMedβ3hAla][NMeL]I[Sar][Sar][NMePhe(4-Cl)][Sar][hPhe(3-F,4-CF3)])) was run?
Its pIC50 is < 6.30.

How did the pIC50 turn out when CC[C@H](C)[C@@H]1NC(=O)[C@H](CC(C)C)N(C)C(=O)C[C@@H](C(=O)N2CCCCC2)N(C)C(=O)[C@H](CC(C)C)NC(=O)C(C)(C)N(C)C(=O)[C@H](Cc2ccccc2Cl)NC(=O)[C@H](Cc2cccc(I)c2)NC(=O)CN(C)C(=O)[C@H](Cc2ccc(C)cc2)N(C)C(=O)[C@@H]2CCN2C(=O)CN(C)C1=O [Compound 781] ([NMeL]I[Sar][Aze][NMePhe(4-Me)][Sar][Phe(3-I)][Phe(2-Cl)][NMeAib]L[NMeD]-Piperidide; lactam N-11) was run?
Its pIC50 is < 6.30.

How did the pIC50 turn out when CC[C@H](C)[C@@H]1NC(=O)[C@H](C)N(C)C(=O)C[C@@H](C)NC(=O)[C@H](C(C)C)N(C)C(=O)[C@H](Cc2ccccc2)N(C)C(=O)[C@H](CC(C)C)N(C)C(=O)[C@H](CCc2ccc(C(F)(F)F)c(F)c2)NC(=O)CN(C)C(=O)[C@H](Cc2ccc(Cl)cc2)N(C)C(=O)[C@@H]2CCN2C(=O)CN(C)C1=O [Compound 782] (cyclo([Aze][NMePhe(4-Cl)][Sar][hPhe(3-F,4-CF3)][NMeL][NMeF][NMeV][d(β3hA)][NMeA]I[Sar])) was run?
Its pIC50 is < 6.30.

With CC[C@H](C)[C@@H]1NC(=O)[C@H](CC(C)C)N(C)C(=O)C[C@@H](C(=O)N2CCCCC2)N(C)C(=O)[C@H](C2CCCCC2)N(C)C(=O)C2(CCCC2)NC(=O)[C@H](Cc2ccc(C)nc2)N(C)C(=O)[C@H](CCc2ccc(C(F)(F)F)c(Cl)c2)NC(=O)CN(C)C(=O)[C@H](CC2CCCCC2)N(C)C(=O)[C@@H]2CCN2C(=O)CN(C)C1=O [Compound 786] ([NMeL]I[Sar][Aze][NMeCha][Sar][hPhe(3-Cl-4-CF3)][NMe3Pal(6-Me)][Ac5c][NMeChg][NMeD]-Piperidide; lactam N-11) as the molecule, how does the pIC50 read?
The pIC50 was < 6.30.

With CC(C)CCOC[C@@H]1NC(=O)[C@H](CC(C)C)N(C)C(=O)C[C@@H](C(=O)N2CCCCC2)N(C)C(=O)[C@H](C2CCCCC2)N(C)C(=O)C2(CCCC2)NC(=O)[C@@H]2CCCN2C(=O)[C@H](CCc2ccc(C(F)(F)F)c(Cl)c2)NC(=O)CN(C)C(=O)[C@H](CC2CCCCC2)N(C)C(=O)CN(C)C(=O)CN(C)C1=O [Compound 794] ([NMeL]S(Isopentyl)[Sar][Sar][NMeCha][Sar][hPhe(3-Cl-4-CF3)]P[Ac5c][NMeChg][NMeD]-Piperidide; lactam N-11) as the molecule, how does the pIC50 read?
Its pIC50 is < 6.30.

CC[C@H](C)[C@@H]1NC(=O)[C@H](CC(C)C)N(C)C(=O)C[C@@H](C)NC(=O)[C@H](C(C)C)N(C)C(=O)C2(CCCC2)NC(=O)[C@@H]2CCCN2C(=O)[C@H](CCc2ccc(C(F)(F)F)c(Cl)c2)NC(=O)CN(C)C(=O)[C@H](CC2CCCCC2)N(C)C(=O)CN(CCC(C)C)C(=O)CN(C)C1=O [Compound 801] (cyclo([Ac5c][NMeV][d(β3hA)][NMeL]I[Sar][N(isopentyl)Gly][NMeCha][Sar][hPhe(3-Cl-4-CF3)]P)) was tested. Which pIC50 did it give?
Its pIC50 is < 6.30.

How did the pIC50 turn out when CC[C@H](C)[C@@H]1NC(=O)[C@H](CC(C)C)N(C)C(=O)C[C@@H](C(=O)N(C)C)N(C)C(=O)[C@H](C2CCCC2)N(C)C(=O)[C@H](C)NC(=O)[C@H](Cc2cscn2)N(C)C(=O)[C@H](CCc2ccc(C(F)(F)F)c(Cl)c2)NC(=O)CN(C)C(=O)[C@H](CC2CCCCC2)N(C)C(=O)[C@@H]2CCN2C(=O)[C@H](C)N(C)C1=O [Compound 805] ([NMeL]I[NMeA][Aze][NMeCha][Sar][hPhe(3-Cl-4-CF3)][NMeAla(4-thiazolyl)]A[NMeGly(cPent)][NMeD]-NMe2; lactam N-11) was run?
The pIC50 was < 6.30.
